Reference: patent publication US8026359B2, “Fungicidal heterocyclic amines” (E.I. du Pont de Nemours and Company, priority 2007, dated 2011)
Marks after values point to notes of the source that are not given here.

What was measured:
Assay type in all cases: in vivo
[1] = tested on: Fusarium graminearum; experiment: whole plant or invertebrate; settings: for Test E disease control rating: 200 ppm, 100 = 100% disease control, 0 = no control relative to controls; for pest or weed control at 200 ppm: Fusarium graminearum, in Triticum aestivum, 192 h, read-out: Test E disease control rating
[2] = tested on: Uncinula necator; experiment: Test N: grape powdery mildew, preventive spray on grape seedlings; settings: 100 ppm (100 g/ha, 1000 L/ha), inoculated the following day, 100 = 100% disease control, 0 = no control relative to controls
Source text: (§1) General protocol for preparing test suspensions for Tests A-R: The test compounds were first dissolved in acetone in an amount equal to 3% of the final volume and then suspended at the desired concentration (in ppm) in acetone and purified water (50/50 mix) containing 250 ppm of the surfactant Trem® 014 (polyhydric alcohol esters). The resulting test suspensions were then used in tests A-R. In Tests A-M, compounds were sprayed as a 200 ppm test suspension (equivalent to a rate of 500 g/ha) or as a 40 ppm test suspension to the point of runoff on the test plants. In Tests N-R, compounds were sprayed as a 100 g/ha test suspension (equivalent to a rate of 100 ppm) on the test plants at an application volume of 1000 L/ha. The test suspension was sprayed on grape seedlings.

[3] = tested on: Septoria nodorum; experiment: Test C: wheat glume blotch, preventive spray on wheat seedlings; settings: 200 ppm, 100 = 100% disease control, 0 = no control relative to controls; for pest or weed control at 200 ppm: Parastagonospora nodorum, 216 h, read-out: Test C disease control rating
In short: (§2)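 Two spray concentrations are used, 40 ppm and 200 ppm, the latter matching a rate of 500 g/ha, applied until run-off. The carrier is half acetone, half purified water with 250 ppm surfactant, and acetone for initial dissolution makes up 3% of the volume.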

[4] = tested on: Septoria tritici; experiment: Test D: wheat leaf blotch, preventive spray on wheat seedlings; settings: 200 ppm, 100 = 100% disease control, 0 = no control relative to controls; for pest or weed control at 200 ppm: Zymoseptoria tritici, 504 h, read-out: Test D disease control rating
In short: as §2

[5] = tested on: Botrytis cinerea; experiment: Test F: tomato Botrytis, preventive spray on tomato seedlings; settings: 200 ppm, 100 = 100% disease control, 0 = no control relative to controls; for pest or weed control at 200 ppm: Botrytis cinerea, 120 h, read-out: Test F disease control rating
In short: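 Preventive run-off spray onto tomato seedlings at 200 ppm (equivalent to 500 g/ha) or 40 ppm. Suspensions: compound predissolved in acetone at 3% of final volume, then taken up in acetone/purified water 50/50 containing 250 ppm Trem® 014 surfactant.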

[6] = tested on: Colletotrichum orbiculare; experiment: Test I: cucumber Colletotrichum anthracnose, preventive spray on cucumber seedlings; settings: 100 = 100% disease control, 0 = no control relative to controls; for Test I disease control rating: 200 ppm; for pest or weed control at 200 ppm: Colletotrichum orbiculare, 144 h, read-out: Test I disease control rating
In short: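 Preventive foliar spray to run-off on cucumber seedlings, at 200 ppm (stated as equal to 500 g/ha) or 40 ppm. Test suspensions were made in acetone/water 50/50 containing 250 ppm Trem 014, after first dissolving compound in acetone at 3% of final volume.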

[7] = tested on: Plasmopara viticola; experiment: Test R: grape downy mildew, preventive spray on grape seedlings; settings: 100 ppm (100 g/ha, 1000 L/ha), inoculated the following day, 100 = 100% disease control, 0 = no control relative to controls
Source text: as §1, with “seedlings. The following day the seedlings were inoculated with a spore suspension of Plasmopara viticola (the causal agent of grape downy mildew) and incubated in a saturated atmosphere at 20° C. for 24 h, then moved to a growth chamber at 20° C. for 7 days, after which time the test units were placed back into a saturated atmosphere at 20° C. for 24 h. Upon removal, disease ratings were made.” for “seedlings.”

[8] = tested on: Puccinia recondita f. sp. tritici; experiment: Test B: wheat leaf rust, preventive spray on wheat seedlings; settings: 200 ppm, 100 = 100% disease control, 0 = no control relative to controls; for pest or weed control at 200 ppm: Puccinia recondita, 192 h, read-out: Test B disease control rating
In short: as §2

[9] = tested on: Venturia inaequalis; experiment: Test O: apple scab, preventive spray on apple seedlings; settings: 100 ppm (100 g/ha, 1000 L/ha), inoculated the following day, 100 = 100% disease control, 0 = no control relative to controls
Source text: as §1, with “apple” for “grape”

[10] = tested on: Erysiphe graminis f. sp. tritici; experiment: Test A: wheat powdery mildew, preventive spray on wheat seedlings; settings: for pest or weed control at 200 ppm: Blumeria graminis, 192 h, read-out: Test A disease control rating
In short: as §2

[11] = tested on: Alternaria solani; experiment: Test H: tomato early blight, preventive spray on seedlings
In short: as §2

[12] = 200 ppm, 100 = 100% disease control, 0 = no control relative to controls

COC[C@H](C)Nc1nccc(-c2ncnc(Nc3cccc([N+](=O)[O-])c3)n2)n1 [Compound 21]
Test E disease control rating [1]: 87% | Test N disease control rating [2]: 57% | Test C disease control rating [3]: 97% | Test D disease control rating [4]: 13% | Test F disease control rating [5]: 72% | Test I disease control rating [6]: 96% | Test R disease control rating [7]: 79% | Test B disease control rating [8]: 99% | Test O disease control rating [9]: 99%

Fc1cccc(Nc2cc(-c3ccnc(NC4CCOCC4)n3)ccn2)c1 [Compound 67, 4-[2-[(3-fluorophenyl)amino]-4-pyridinyl]-N-(tetrahydro-2H-pyran-4-yl)-2-pyrimidinamine]
pest or weed control at 200 ppm [1]: 0% | Test N disease control rating [2]: 55% | pest or weed control at 200 ppm [3]: 99% | pest or weed control at 200 ppm [4]: 52% | pest or weed control at 200 ppm [5]: 95% | pest or weed control at 200 ppm [6]: 79% | Test R disease control rating [7]: 94% | pest or weed control at 200 ppm [8]: 97% | Test O disease control rating [9]: 73% | pest or weed control at 200 ppm [10, 12]: 17%

COC[C@H](C)Nc1nccc(-c2ncnc(Nc3cccc(C)c3)n2)n1 [Compound 19]
Test E disease control rating [1]: 97% | Test N disease control rating [2]: 95% | Test C disease control rating [3]: 100% | Test H disease control rating [11, 12]: 93% | Test D disease control rating [4]: 87% | Test F disease control rating [5]: 99% | Test I disease control rating [6]: 99% | Test R disease control rating [7]: 73% | Test B disease control rating [8]: 97% | Test O disease control rating [9]: 33%

COC[C@H](C)Nc1nccc(-c2ncnc(Nc3cccc(Cl)c3)n2)n1 [Compound 16]
Test E disease control rating [1]: 99% | Test N disease control rating [2]: 99% | Test C disease control rating [3]: 99% | Test H disease control rating [11, 12]: 98% | Test D disease control rating [4]: 71% | Test F disease control rating [5]: 96% | Test I disease control rating [6]: 97% | Test R disease control rating [7]: 40% | Test B disease control rating [8]: 99% | Test O disease control rating [9]: 76%

Clc1cc(Cl)c(Nc2cc(-c3ccnc(NC4CCOCC4)n3)ccn2)c(Cl)c1 [Compound 99]
Test E disease control rating [1]: 92% | Test N disease control rating [2]: 30% | Test C disease control rating [3]: 100% | Test D disease control rating [4]: 30% | Test F disease control rating [5]: 0% | Test I disease control rating [6]: 0% | Test R disease control rating [7]: 99% | Test B disease control rating [8]: 95% | Test O disease control rating [9]: 83% | Test A disease control rating [10, 12]: 0%

COC[C@H](C)Nc1nccc(-c2ncnc(Nc3ccc(C)c([N+](=O)[O-])c3)n2)n1 [Compound 26]
Test E disease control rating [1]: 98% | Test N disease control rating [2]: 69% | Test C disease control rating [3]: 100% | Test H disease control rating [11, 12]: 91% | Test D disease control rating [4]: 2% | Test F disease control rating [5]: 17% | Test R disease control rating [7]: 96% | Test B disease control rating [8]: 98% | Test O disease control rating [9]: 96%

Cc1cc(C)c(Nc2cc(-c3ccnc(NC4CCOCC4)n3)ccn2)c(Cl)c1 [Compound 90]
Test E disease control rating [1]: 100% | Test N disease control rating [2]: 98% | Test C disease control rating [3]: 100% | Test D disease control rating [4]: 47% | Test F disease control rating [5]: 99% | Test I disease control rating [6]: 93% | Test R disease control rating [7]: 98% | Test B disease control rating [8]: 99% | Test A disease control rating [10, 12]: 98%

COC[C@H](C)Nc1nccc(-c2ncnc(Nc3ccc(F)c(Cl)c3)n2)n1 [Compound 23]
Test E disease control rating [1]: 98% | Test N disease control rating [2]: 61% | Test C disease control rating [3]: 100% | Test H disease control rating ([11]; 40 ppm (marked *)): 100* % | Test D disease control rating [4]: 13% | Test F disease control rating [5]: 90% | Test I disease control rating [6]: 99% | Test R disease control rating [7]: 30% | Test B disease control rating [8]: 98% | Test O disease control rating [9]: 99% | Test A disease control rating ([10]; 40 ppm (marked *)): 0* %

COCC(C)Nc1nccc(-c2ncnc(Nc3cccc(Cl)c3)n2)n1 (centres unmarked) [Compound 1, N-(3-chlorophenyl)-4-[2-[(2-methoxy-1-methylethyl)amino]-4-pyrimidinyl]-1,3,5-triazine-2-amine]
pest or weed control at 200 ppm [1]: 98% | Test N disease control rating [2]: 90% | pest or weed control at 200 ppm [3]: 100% | pest or weed control at 200 ppm [4]: 0% | pest or weed control at 200 ppm [5]: 98% | pest or weed control at 200 ppm [6]: 99% | Test R disease control rating [7]: 26% | pest or weed control at 200 ppm [8]: 96% | Test O disease control rating [9]: 78% | pest or weed control at 200 ppm [10, 12]: 76%

COC[C@H](C)Nc1nccc(-c2ncnc(Nc3ccc(C)c(F)c3)n2)n1 [Compound 25]
Test E disease control rating [1]: 99% | Test N disease control rating [2]: 99% | Test C disease control rating [3]: 100% | Test H disease control rating [11, 12]: 99% | Test D disease control rating [4]: 16% | Test F disease control rating [5]: 63% | Test R disease control rating [7]: 86% | Test B disease control rating [8]: 99% | Test O disease control rating [9]: 59%

Clc1cccc(Cl)c1Nc1cc(-c2ccnc(NC3CCOCC3)n2)ccn1 [Compound 81]
Test E disease control rating [1]: 97% | Test N disease control rating [2]: 97% | Test C disease control rating [3]: 99% | Test D disease control rating [4]: 92% | Test F disease control rating [5]: 99% | Test I disease control rating [6]: 91% | Test R disease control rating [7]: 97% | Test B disease control rating [8]: 100% | Test O disease control rating [9]: 69% | Test A disease control rating [10, 12]: 95%

COC[C@H](C)Nc1nccc(-c2ncnc(Nc3cccc(Br)c3)n2)n1 [Compound 11]
Test E disease control rating [1]: 99% | Test N disease control rating [2]: 85% | Test C disease control rating [3]: 100% | Test H disease control rating [11, 12]: 98% | Test D disease control rating [4]: 0% | Test F disease control rating [5]: 96% | Test R disease control rating [7]: 27% | Test B disease control rating [8]: 96% | Test O disease control rating [9]: 92%
